The source of these data is patent US12018024B2, “Compounds and compositions for the treatment of cryptosporidiosis” (Novartis AG, priority 2020, dated 2024).

Each structure is given as a SMILES string.

The target of experiment [1] is C. parvum PI(4)K (Cryptosporidium parvum, UniProt Q5CVD3). In words: CpPI(4)K enzymatic assay (Transcreener ADP2 FP). The class given is biochemical. An excerpt: Baculovirus expression and purification of C. parvum phosphatidylinositol 4-kinase: The full-length coding sequence of C. parvum PI(4)K (cgd8_4500, 1114 amino acids) was codon-optimized for baculovirus expression, synthesized and cloned into pFastBac-HTb (Invitrogen 10584-027) in frame with the amino-terminal polyhistidine tag using the BamHI and HindIII restriction sites. Recombinant pFastBacHTb-CpPI(4)K bacmid clones were generated by site-specific transposition in E. coli DH10Bac (Invitrogen 10361-012). The bacmid sequence was confirmed by direct DNA sequencing to confirm a lack of mutations across the whole gene. The subsequent steps for bacmid isolation, transfection and selection of the recombinant viruses were performed according to the manufacturer's protocol (Bac-to-Bac system #10359, Invitrogen).
Chain of C. parvum PI(4)K (Q5CVD3 entry or part of it): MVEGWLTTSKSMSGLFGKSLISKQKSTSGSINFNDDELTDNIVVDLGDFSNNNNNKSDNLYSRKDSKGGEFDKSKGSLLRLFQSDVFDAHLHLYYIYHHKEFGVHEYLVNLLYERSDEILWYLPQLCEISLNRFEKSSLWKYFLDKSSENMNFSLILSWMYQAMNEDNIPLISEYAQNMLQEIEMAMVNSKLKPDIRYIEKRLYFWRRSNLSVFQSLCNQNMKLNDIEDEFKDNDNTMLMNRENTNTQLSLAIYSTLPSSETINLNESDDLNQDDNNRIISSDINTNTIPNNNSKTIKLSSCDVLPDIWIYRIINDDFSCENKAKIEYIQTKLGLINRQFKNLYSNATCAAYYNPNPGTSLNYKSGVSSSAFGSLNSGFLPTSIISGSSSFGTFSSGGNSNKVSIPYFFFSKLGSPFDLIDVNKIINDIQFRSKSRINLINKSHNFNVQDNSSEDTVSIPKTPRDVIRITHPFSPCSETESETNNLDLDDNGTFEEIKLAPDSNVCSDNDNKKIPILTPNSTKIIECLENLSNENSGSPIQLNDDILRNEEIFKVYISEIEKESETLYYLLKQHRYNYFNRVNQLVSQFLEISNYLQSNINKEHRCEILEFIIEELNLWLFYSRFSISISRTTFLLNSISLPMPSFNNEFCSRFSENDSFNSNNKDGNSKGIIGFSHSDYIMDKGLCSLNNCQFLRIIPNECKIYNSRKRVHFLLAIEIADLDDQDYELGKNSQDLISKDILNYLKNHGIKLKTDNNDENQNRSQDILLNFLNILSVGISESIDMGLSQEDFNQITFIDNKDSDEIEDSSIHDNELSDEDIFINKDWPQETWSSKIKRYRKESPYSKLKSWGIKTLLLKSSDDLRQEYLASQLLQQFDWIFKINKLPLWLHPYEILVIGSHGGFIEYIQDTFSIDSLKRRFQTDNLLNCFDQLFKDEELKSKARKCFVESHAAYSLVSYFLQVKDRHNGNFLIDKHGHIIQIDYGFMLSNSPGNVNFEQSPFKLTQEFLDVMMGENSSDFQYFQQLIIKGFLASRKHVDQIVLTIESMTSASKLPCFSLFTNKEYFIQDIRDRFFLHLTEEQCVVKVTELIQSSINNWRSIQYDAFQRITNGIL
SF9 cells, cultured in […] serum-free medium, were transfected with recombinant baculovirus at 1/200 (v/v) and incubated at 27° C. for 72 h. The pellets were collected after centrifugation and re-suspended in cell lysis buffer (20 mM Tris-HCl, pH 7.5, 300 mM NaCl, 1 mM DTT, 20 mM imidazole, 0.01% Triton X-100 and 1× complete protease inhibitor cocktail without EDTA (Roche Diagnostics 04693116001)). The cell suspension was lysed by sonication and the clarified supernatant was loaded onto a 1 ml HisTrap affinity column (GE Healthcare) pre-equilibrated with buffer A (20 mM Tris-HCl, pH 7.5, 300 mM NaCl, 1 mM DTT, 20 mM Imidazole, and 1× complete protease inhibitor cocktail without EDTA). The column was washed with buffer B (buffer A containing 45 mM imidazole) and the bound protein of interest was eluted with buffer C (buffer A with 90 mM imidazole). The fractions containing CpPI(4)K were pooled, concentrated using Amicon Ultra-15 and purified by a gel-filtration column (Hi-Load 26/60 Superdex 200, GE Healthcare) equilibrated with 20 mM Tris, pH 7.5, 300 mM NaCl, 1 mM DTT and 1× protease inhibitor cocktail without EDTA. The concentrations of the purified protein (Mw 132.39 kda) was determined by using the protein molar extinction coefficient (ε280 nm=133,810 M^−1 cm^−1). Aliquots were flash frozen in liquid nitrogen and immediately stored at −80° C.
PI(4)K enzymatic Assay The CpPI(4)K enzymatic assay was performed as described earlier with a some modifications (McNamara et al., 2013). Briefly, L-α-phosphatidylinositol (Avanti Polar Lipid 840046), dissolved in 3% n-octylglucoside (Roche Diagnostics 10634425001), was used as the lipid substrate for the PI(4)K activity assay. CpPI(4)K was assayed using Transcreener ADP2 FP detection kit (BellBrook 3010) in a black, solid 384-well plate (Corning 3575). The final assay volume was 10 μl and contained 3 nM of the respective CpPI(4)K construct in 10 mM Tris, pH 7.5, 1 mM DTT, 3 μM ATP, 5 mM Mn2+, 0.05% Triton X-100 and 10 μM phosphatidylinositol/octylglucoside. The enzyme reaction was performed for 50 minutes at room temperature and was stopped by adding 10 μl of detection mix containing 1× stop buffer (50 mM HEPES, pH7.5, 400 mM NaCl, 20 mM EDTA, and 0.02% Brij-35), 2 nM AMP Alexa Fluor 633 tracer, and 20 μg ml^−1 ADP antibody. Fluorescence polarization measurements were performed on the Infinite M1000 plate reader (Tecan) with λex=635 nm and λem=680 nm (20-nm bandwidth). IC50 values were calculated using Graphpad Prism software.

Experiment [2] concerns Cryptosporidium parvum. In words: Cytopathic effect (CPE) based assay, C. parvum-infected HCT-8 cells. The class given is cell-based. The note with it: HCT-8, 48 h, read-out: (b) C.p.* CPE EC50 (μM). The method, then:
Human ileocecal colorectal adenocarcinoma cells (HCT-8 [HRT-18] ATCC, CCL-34) were maintained in T-175 flasks (Corning, 431080) in complete growth medium (RPMI-1640 medium (Gibco, 11875) supplemented with 10% heat-inactivated horse serum (Gibco, 26050), 1× MEM non-essential amino acids (Gibco, 11140), 10 mM HEPES (Gibco, 15630), 100 units/mL penicillin, and 100 units/mL streptomycin) at 37° C. and 5% CO2 in a humidified incubator. Cultures were passaged twice weekly using 10 mL of 1× Phosphate-Buffered Saline (PBS) without Ca^2+ and Mg^2+ (Gibco, 20012) for washing and 3-5 mL per T-175 flask of TrypLE Express Enzyme (Gibco, 12604) for dissociation of adherent cells.
Cryptosporidium parvum oocysts purchased from the Sterling Laboratory, University of Arizona (Iowa isolate) were purified from infected calf feces using discontinuous sucrose and cesium chloride centrifugation gradients and stored in PBS solution containing 0.01% Tween 20, 100 units/mL penicillin and 100 units/mL gentamicin.
Excystaion and infection: Excystation and infection protocols were developed following established methods with some modifications (Gut & Nelson, 1999, Upton et al., 1995, Bessoff et al., 2013). Briefly, oocysts were primed in 1 mL of 10 mM hydrochloric acid in 1× Hank's Balanced Salt Solution (HBSS) (Gibco, 14025) for 10 minutes with agitation at 1000 rpm, 37° C. on an Eppendorf thermomixer, then washed twice with 1 mL of room temperature non-acidic 1× HBSS by centrifugation at 13,000 rpm for 3 minutes at 25° C. Primed oocysts were further excysted at a concentration of 1×10^6 oocysts/μL in parasite infection medium consisting of a pre-warmed and pre-gassed 1:1 formulation of Leibovitz's L-15 medium (Gibco, 11415) and UltraCULTURE medium (Lonza, 12-725F) supplemented with 2 mM sodium taurocholate (Sigma, 86339-1), 10% heat-inactivated horse serum, and 200 μM L-ascorbic acid (Sigma, 95210) at 25° C. for 10 minutes. HCT-8 monolayer cells were infected with excysted cryptosporidium at a specified multiplicity of infection (MOI). All dilutions for subsequent assays were performed in parasite infection medium without sodium taurocholate. Pre-excysted oocysts were enumerated microscopically using a C-Chip disposable hemocytometer (NanoEnTek, DHC-N01).
Compound and assay plate preparation: Compound powders were dissolved in neat DMSO (Fisher, D4121) to 10 mM and stored at 4° C. prior to dilution into source plates. Dilutions were carried out using a Microlab STAR liquid handler (Hamilton) to obtain compound source plates containing the ten-point or eight-point three fold dilutions starting from 10 mM in duplicates. Source plates were stored at 4° C. prior to spotting into assay plates. Before administration, all compound source plates were equilibrated to room temperature. A specified volume of compounds from source plate were spotted to assay plate using an Echo Acoustic liquid handler (LABCYTE, 550) so that the final DMSO concentration was less than 0.5%. Each assay plate a specified number of DMSO-treated negative control wells and a well-studied potent active compound at 100 nM as positive control. As a quality control, all positive and negative-control wells were used to calculate a Z′-value and signal to noise ratio (S:N) for each plate.
Cryptosporidium spp are obligate-intracellular parasites that infect intestinal epithelial cells and the host cell is killed upon parasite egress. […] The loss of epithelial cells is due to both rapid parasite invasion/multiplication/egress and also pro-inflammatory immune response (Adams et al., 1994, Griffiths et al., 1994). We have observed a consistent cytopathic effect (CPE) in HCT-8 cells with C. spp infection the loss of viability of the host cells using CellTiter-Glo reagent.
Confluent HCT-8 cells in T-175 flasks were directly infected with excysted oocysts at an MOI (host to parasite) of 1:2 for C. parvum and 1:4 for C. hominis. […]
(In general: Protection from cytopathic effect is a common read-out in antiviral testing.)

The target of experiment [3] is H.s. PI(4)K (Homo sapiens, UniProt Q9UBF8). In words: H.s. PI(4)K IC50. The class given is biochemical. Particulars: read-out: (d) H.s.* PI(4)K IC50.
Chain of H.s. PI(4)K (Q9UBF8 2-816 limits assumed): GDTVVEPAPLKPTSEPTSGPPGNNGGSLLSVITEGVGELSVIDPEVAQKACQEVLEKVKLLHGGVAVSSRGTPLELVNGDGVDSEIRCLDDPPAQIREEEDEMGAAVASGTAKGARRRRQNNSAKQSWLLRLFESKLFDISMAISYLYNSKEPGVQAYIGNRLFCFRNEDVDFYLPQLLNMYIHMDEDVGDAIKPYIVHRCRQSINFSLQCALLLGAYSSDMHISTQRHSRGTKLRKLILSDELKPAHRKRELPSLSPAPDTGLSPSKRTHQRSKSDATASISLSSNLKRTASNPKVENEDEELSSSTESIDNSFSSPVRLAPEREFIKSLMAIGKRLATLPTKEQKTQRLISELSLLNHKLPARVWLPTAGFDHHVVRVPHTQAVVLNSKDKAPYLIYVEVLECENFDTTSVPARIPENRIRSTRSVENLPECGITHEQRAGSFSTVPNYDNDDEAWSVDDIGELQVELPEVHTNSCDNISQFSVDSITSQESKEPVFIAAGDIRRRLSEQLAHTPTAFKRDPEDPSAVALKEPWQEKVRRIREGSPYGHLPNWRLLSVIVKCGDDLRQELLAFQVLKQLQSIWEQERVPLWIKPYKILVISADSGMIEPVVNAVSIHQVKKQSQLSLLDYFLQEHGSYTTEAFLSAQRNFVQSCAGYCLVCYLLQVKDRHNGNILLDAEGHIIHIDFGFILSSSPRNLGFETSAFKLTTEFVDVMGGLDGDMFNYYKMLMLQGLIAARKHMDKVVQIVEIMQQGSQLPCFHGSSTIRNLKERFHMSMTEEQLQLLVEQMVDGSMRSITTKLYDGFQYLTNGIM

The IC50 is the midpoint of a concentration-inhibition curve. Usually EC50 stands for the concentration that produces a half-maximal response. Turning to `CNC(=O)c1ccc(-c2cnn3ccc(C(=O)N(C)c4ccc(Cl)c(C(=O)OCCN5CCOCC5)c4)cc23)cc1` [Example 1.19, 2-Morpholinoethyl 2-chloro-5-(N-methyl-3-(4-(methylcarbamoyl)phenyl)pyrazolo[1,5-a]pyridine-5-carboxamido)benzoate], the IC50 is under 0.1 µM in experiment [1] and 0.1 to 1 µM in experiment [3]. Also, in experiment [2], the EC50 lay within 0.1 to 1 µM.
In the case of `CNC(=O)c1ccc(-c2cnn3ccc(C(=O)Nc4ccc(Cl)c(C(=O)OC)c4)cc23)cc1` [Example 1.24, Methyl 2-chloro-5-(3-(4-(methylcarbamoyl)phenyl)pyrazolo[1,5-a]pyridine-5-carboxamido)benzoate], the IC50 in experiment [1] and in experiment [3] was over 1 µM throughout. For the same molecule, the EC50 in experiment [2] is over 1 µM.
For `CN(C(=O)c1ccn2ncc(-c3ccc(C(N)=O)cc3)c2c1)c1ccc(Cl)c(C(=O)O)c1` [Example 1.03, 5-(3-(4-Carbamoylphenyl)-N-methylpyrazolo[1,5-a]pyridine-5-carboxamido)-2-chlorobenzoic acid], the figures for the IC50 in experiment [1] and in experiment [3] were under 0.1 µM and 0.1 to 1 µM, respectively. The EC50 in experiment [2] is over 1 µM.
Take `COC(=O)c1cc(N(C)C(=O)c2ccn3ncc(-c4ccc(C(N)=O)cc4C)c3c2)ccc1Cl` [Example 1.21, Methyl 2-chloro-5-(N-methyl-3-(2-methyl-4-(carbamoyl)phenyl)pyrazolo[1,5-a]pyridine-5-carboxamido)benzoate]: the IC50 in experiment [1] is under 0.1 µM; in experiment [3] it was over 1 µM. The EC50 in experiment [2] was 0.1 to 1 µM.
For the molecule `CN(C(=O)c1ccn2ncc(-c3ccc(C(N)=O)cc3)c2c1)c1ccc(Cl)c(C(=O)OCCN2CCOCC2)c1` [Example 1.08, 2-Morpholinoethyl 5-(3-(4-carbamoylphenyl)-N-methylpyrazolo[1,5-a]pyrdine-5-carboxamido)-2-chlorobenzoate], the IC50 in experiment [1] was under 0.1 µM; in experiment [3], over 1 µM. For the same molecule, the EC50 in experiment [2] was in the range of 0.1 to 1 µM.
With `CNC(=O)c1ccc(-c2cnc3cnc(C(=O)N(C)c4ccc(Cl)c(C(=O)OC)c4)cn23)cc1` [Example 2.1, Methyl 2-chloro-5-(N-methyl-3-(4-(methylcarbamoyl)phenyl)imidazo[1,2-a]pyrazine-6-carboxamido)benzoate], the IC50 in experiment [1] is under 0.1 µM; in experiment [3] it was over 1 µM. For the same molecule, the EC50 in experiment [2] fell in the range of 0.1 to 1 µM.
As to `CNC(=O)c1ccc(-c2cnn3ccc(C(=O)N(C)c4ccc(Cl)c(C(=O)O)c4)cc23)cc1` [Example 1.18, 2-Chloro-5-(N-methyl-3-(4-(methylcarbamoyl)phenyl)pyrazolo[1,5-a]pyridine-5-carboxamido)benzoic acid], the values for the IC50 in experiment [1] and in experiment [3] were under 0.1 µM and 0.1 to 1 µM, respectively. Besides, the EC50 in experiment [2] is over 1 µM.
The matching figures for `COC(=O)c1cc(N(C)C(=O)c2ccn3ncc(-c4ccc(C(N)=O)cc4)c3c2)ccc1OC(F)(F)F` [Example 1.25, Methyl 5-(3-(4-carbamoylphenyl)-N-methylpyrazolo[1,5-a]pyridine-5-carboxamido)-2-(trifluoromethoxy)benzoate]: under 0.1 µM, over 1 µM and 0.1 to 1 µM.
As to `COC(=O)c1cc(N(C)C(=O)c2ccn3ncc(-c4ccc(C(N)=O)cc4)c3c2)ccc1C#N` [Example 1.27, Methyl 5-(3-(4-carbamoylphenyl)-N-methylpyrazolo[1,5-a]pyridine-5-carboxamido)-2-cyanobenzoate], the IC50 in experiment [1] is under 0.1 µM; in experiment [3] it was over 1 µM. Further, the EC50 in experiment [2] is under 0.1 µM.
With `CCOC(=O)OC(C)OC(=O)c1cc(N(C)C(=O)c2ccn3ncc(-c4ccc(C(N)=O)cc4)c3c2)ccc1Cl` (racemic) [Example 1.14, rac-1-((Ethoxycarbonyl)oxy)ethyl 5-(3-(4-carbamoylphenyl)-N-methylpyrazolo[1,5-a]pyridine-5-carboxamido)-2-chlorobenzoate], the IC50 in experiment [1] is 0.1 to 1 µM; in experiment [3], over 1 µM. In addition, the EC50 in experiment [2] was over 1 µM.
For the molecule `CNC(=O)c1ccc(-c2cnn3ccc(C(=O)N(C)c4ccc(Cl)c(C(=O)OC)c4)cc23)cc1C` [Example 1.22], the IC50 is 0.1 to 1 µM in experiment [1] and over 1 µM in experiment [3]. Further, in experiment [2], the EC50 was over 1 µM.
For `COC(=O)c1cc(NC(=O)c2ccn3ncc(-c4ccc(C(N)=O)cc4)c3c2)ccc1Cl` [Example 1.23, Methyl 5-(3-(4-carbamoylphenyl)pyrazolo[1,5-a]pyridine-5-carboxamido)-2-chlorobenzoate], the IC50 in experiment [1] and in experiment [3] was over 1 µM each time. Besides, the EC50 in experiment [2] is over 1 µM.
